Assay results: patent US20020035138A1, “Activating Cl- secretion” (Southern Research Institute, priority 1997, published 2002)
“Also recorded” adds a separate entry of the source. Read-outs that look alike come from different tables or passages of the source.

Columns and labels:
CFPAC cells [1] = test: Iodide efflux protocol in CFPAC cells; format: cell-based, human; settings: for iodide (anion) efflux: CF pancreatic ductular cells (CFPAC), FIG. 1
Excerpt: (§1) The iodide efflux protocol is a conventional test for the existence of anion permeability pathways, including both CFTR (cAMP-activated) and non-CFTR permeability pathways (e.g., Ca^2+-activated Cl^− transport). […] Ionomycin, a Ca^2+ ionophore, is known to activate non-CFTR-type anion efflux pathways in CFPAC cells by increasing intracellular Ca^2+.
(§2) Epithelial cells in the pancreatic ducts, lung, and colon secrete fluid and electrolytes into the pancreatic ductular lumen, airways and intestinal lumen, respectively. The inability to secrete anions in response to a cAMP-dependent agonist such as forskolin is a hallmark of the CF phenotype. […] Methods: Iodide efflux. Iodide efflux was performed as previously described (Venglarik et al., Am. J. Physiol. 259:C358-C364, 1990, and Drumm et al., Cell 62:1227-1233, 1990) Cells were grown on […] culture dishes, and effluxes were performed when the cells were 80-100% confluent using a phosphate buffered Ringer's solution. Cells were loaded with ^125I (2-5 μCi/ml) for 30 minutes and then washed with PBS to remove extracellular ^125I. Efflux was detected by measuring the radioactivity in the extracellular solution which was changed every 15 seconds. At specific points, compounds were added to the cells. Increases in the rate of efflux after addition of a compound indicates the activation of an anion permeability pathway.

T84 cells = test: Iodide efflux protocol in T84 colonic epithelial cells; format: cell-based, human; settings: T84 cells expressing high levels of CFTR
Excerpt: as §1, §2

[2] = system: T84 colonic epithelial cells; test: Short circuit current (ISC) in T84 colonic epithelial cell monolayers; format: cell-based, human; settings: with 10 μM forskolin
Description: (§3) FIG 4. Cl^- secretion in CFPAC-1 cells. CFPAC-1 cell monolayers were grown to confluency on permeable supports (Millipore) for 10 days. Filters were mounted in an Ussing chamber, and short circuit current measurement was carried out as previously described ([…] and Dawson, Am. J. Physiol. 251:[…]-[…], 1986). Filters were bathed in Ringer's solution (in mM: 145 Na^+, 5 K^+, 124.8 Cl^-, 1.2 Ca^2+, 1.2 Mg^2+, 25 HCO3-, 4.2 PO4, 10 glucose; pH=7.4) on the serosal surface and in a 6 mM Cl^- Ringer's solution (118.8 mM of Cl^- was replaced by the impermeant anion gluconate) on the mucosal surface. The compounds were screened using different concentrations of drugs and adding them to alternate surfaces of the filters (mucosal; serosal; mucosal and serosal). The effects of forskolin (10 μM), UTP (100 μM) CPX (100 μm) and duramycin (5 μm) were also studied. […] Explants of CF nasal polyps (primary airway epithelial cells) and control, non-CF colonic epithelial cells (T84) containing wild-type CFTR were also studied. […] In other words, these experiments raise the possibility that Cl^- secretion effects of drugs such as adenosine, milrinone, IBMX, or forskolin might be increased by compounds employed in the present invention by a conjoint therapy treatment. […] The ISC occurs after mucosal, but not serosal addition of the compound.

[3] = system: primary airway cells taken from a CF patient; test: Iodide efflux protocol in primary airway cells taken from a CF patient; format: cell-based, human; settings: FIG. 2
Description: as §2

CFPAC cells [4] = test: Cell proliferation assay (Cell titer 96 kit); format: cell-based, human
Description: (§4) Proliferation was measured as in Hughes et al., Tumor specific killing with high bystander toxicity using the human tyrosinase promoter to express the E. coli PNP gene, Cancer Research 55: 3339-3345, 1995 and Parker et al., In vivo gene therapy of cancer with E. coli purine nucleoside phosphorylase, Human Gene Therapy, 1997 (in press) using a commercially available kit (Cell titer 96 kit, Promega) and carried out according to manufacturer's protocol. 20 μm 2931 activates Cl^− secretion in CF cells within 5 minutes. […] (FIG. 3A) cAMP levels were tested using the cAMP Immunoassay kit (Cayman) according to manufacturer's protocol.

CFPAC-1 cell monolayers = test: Short circuit current (ISC) in CFPAC-1 cell monolayers, Ussing chamber; format: cell-based, human
Description: as §3, with “Filters were bathed in Ringer's solution (in mM: 145 Na^+, 5 K^+, 124.8 Cl^-, 1.2 Ca^2+, 1.2 Mg^2+, 25 HCO3-, 4.2 PO4, 10 glucose; pH=7.4) on the serosal surface and in a 6 mM Cl^- Ringer's solution (118.8 mM of Cl^- was replaced by the impermeant anion gluconate) on the mucosal surface.” left out

mouse intestine = test: ISC across mouse intestine (colon sections) in Ussing chambers
Description: Small sections of mouse colon from both wild-type and CF knockout mice were mounted in Ussing chambers, and ISC measurements were recorded as described above. Both mucosal and serosal surfaces were bathed in regular Ringer's solution, and TTX (1.54×10^−3 μM) was added to the serosal side of the tissue. After a steady-state had been obtained, amiloride (10^−4 M) was added to the mucosal surface. Both sides were then bathed with regular Ringer's. A Cl gradient was established by bathing the mucosal surface with a 6 mM Cl^− solution. 5-diazoimidazol-4-carboxylic acid n-octyl ester (100 μM) was added first to the mucosal and then the serosal surface of the mounted tissue (FIG. 9).

cellular cAMP = test: cAMP Immunoassay kit, cellular cAMP levels; format: cell-based, human; settings: same conditions that stimulate anion transport, FIG. 3
Description: as §4

CF tissues = settings: including transepithelial transport in vivo; cited from earlier work
ΔF508 CFTR = molecular target: T1, ΔF508 CFTR (Homo sapiens, UniProt P13569, DEL508-508); settings: cited from earlier work
T1 construct: host or cells: CFPAC and IB3-1 (endogenous mutant CFTR); NIH 3T3 (after expression of the ΔF508 protein)
T1 sequence (P13569 with tags, fused parts or gaps DEL508-508): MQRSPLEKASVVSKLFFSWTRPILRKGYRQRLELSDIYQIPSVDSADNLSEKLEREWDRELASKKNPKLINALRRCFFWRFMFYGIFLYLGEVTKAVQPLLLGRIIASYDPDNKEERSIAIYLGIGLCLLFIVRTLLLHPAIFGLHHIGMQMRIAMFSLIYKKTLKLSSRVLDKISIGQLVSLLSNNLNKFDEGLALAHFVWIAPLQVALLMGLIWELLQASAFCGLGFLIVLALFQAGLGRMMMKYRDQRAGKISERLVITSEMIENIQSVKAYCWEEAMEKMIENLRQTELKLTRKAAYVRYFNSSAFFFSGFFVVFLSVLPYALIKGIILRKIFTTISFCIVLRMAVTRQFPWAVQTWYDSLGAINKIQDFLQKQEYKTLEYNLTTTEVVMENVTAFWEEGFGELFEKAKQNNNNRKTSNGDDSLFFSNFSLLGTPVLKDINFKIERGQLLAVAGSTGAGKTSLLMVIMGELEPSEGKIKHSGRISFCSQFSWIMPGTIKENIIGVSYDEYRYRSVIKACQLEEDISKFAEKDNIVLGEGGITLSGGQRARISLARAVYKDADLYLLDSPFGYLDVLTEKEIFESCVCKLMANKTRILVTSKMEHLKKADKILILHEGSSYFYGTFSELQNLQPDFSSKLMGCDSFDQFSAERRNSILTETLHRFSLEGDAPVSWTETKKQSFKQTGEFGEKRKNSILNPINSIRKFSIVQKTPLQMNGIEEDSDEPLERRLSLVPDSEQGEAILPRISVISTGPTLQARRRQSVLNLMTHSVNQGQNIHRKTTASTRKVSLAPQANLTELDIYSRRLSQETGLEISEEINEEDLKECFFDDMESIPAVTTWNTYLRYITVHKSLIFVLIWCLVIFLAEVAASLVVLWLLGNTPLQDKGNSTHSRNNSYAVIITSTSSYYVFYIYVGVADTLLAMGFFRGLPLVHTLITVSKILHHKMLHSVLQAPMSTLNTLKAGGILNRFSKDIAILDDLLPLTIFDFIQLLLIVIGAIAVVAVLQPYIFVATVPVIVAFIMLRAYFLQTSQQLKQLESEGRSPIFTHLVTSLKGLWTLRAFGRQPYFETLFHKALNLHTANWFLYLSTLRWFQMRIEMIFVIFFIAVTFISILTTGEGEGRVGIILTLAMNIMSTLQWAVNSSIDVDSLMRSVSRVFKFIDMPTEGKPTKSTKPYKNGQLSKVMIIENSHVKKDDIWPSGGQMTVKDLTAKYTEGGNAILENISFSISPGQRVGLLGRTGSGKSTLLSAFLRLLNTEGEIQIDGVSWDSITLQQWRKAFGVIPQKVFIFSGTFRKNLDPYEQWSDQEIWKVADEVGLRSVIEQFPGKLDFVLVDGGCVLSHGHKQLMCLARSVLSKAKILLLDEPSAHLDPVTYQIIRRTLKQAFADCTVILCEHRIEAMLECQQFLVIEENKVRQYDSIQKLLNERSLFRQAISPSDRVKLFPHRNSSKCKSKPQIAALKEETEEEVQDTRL

[5] = 100 μM, serosal-mucosal Cl- gradient

For `CCCCCCCCOC(=O)C1=NC=NC1=[N+]=[N-]` [5-diazoimidazol-4-carboxylic acid n-octyl ester], the “time to activation of Cl- secretion” value (CFPAC cells [1]; 20 μm, CF cells) was no more than 5 min, the “iodide (anion) efflux” value (CFPAC cells [1]) was “confers a rapid efflux of iodide; also recorded: strongly activated” and the “anion efflux after removal of extracellular Ca2+” value (CFPAC cells [1]; extracellular Ca2+ removed) was “does not substantially inhibit anion efflux”. For the same molecule, the “iodide (anion) efflux” value (T84 cells) was “strongly activated”, the “ISC on top of maximal forskolin activation” value [2] was “augmented the maximal ISC activation” and the “iodide (anion) efflux” value [3] was “strongly activated”. The proliferation of cells (CFPAC cells [4]; at concentrations that activate anion efflux, FIG. 3A) was “allows proliferation of cells”, the “effects on cellular proliferation” value (CFPAC cells [4]; cells grown for 7 days at 20 μm) was “minimal effects on cellular proliferation” and the “induced ISC in presence of BAPTA AM” value (CFPAC-1 cell monolayers; BAPTA AM 100 μM, FIG. 7) was “had no effect”. The “potency and duration of effects relative to UTP and CPX” value (CFPAC-1 cell monolayers; CFPAC cells) was “more potent and prolonged effects”, the “direction of ISC” value (CFPAC-1 cell monolayers; Cl- gradient reversed (mucosal-to-serosal)) was “could be reversed” and the ISC response (CFPAC-1 cell monolayers; Cl- omitted from mucosal and serosal bathing solutions) was “much less pronounced”. For the same molecule, the “ISC effect in presence of acetazolimide” value (CFPAC-1 cell monolayers; acetazolimide 100 μM) was “did not inhibit the effect”, the ISC response (CFPAC-1 cell monolayers; added to apical (mucosal) surface, serosal-to-mucosal Cl- gradient) was “strong ISC response” and the ISC response (CFPAC-1 cell monolayers; added to basolateral (serosal) surface) was “not basolateral”. For the same molecule, the “ISC response in presence of amiloride” value (CFPAC-1 cell monolayers; amiloride 10 μM on apical surface) was “did not alter this response”, the duration of activity (CFPAC-1 cell monolayers; compared with UTP, CPX or duramycin, same conditions, FIG. 8) was “of longer duration than other drugs” and the “ISC activation without imposed gradient” value (CFPAC-1 cell monolayers; symmetrical Ringer's lactate) was “still present”. The “induced ISC in presence of thapsagargin” value (CFPAC-1 cell monolayers; thapsagargin 0.1 μM, FIG. 7) was “had no effect”, the ISC activation (mouse intestine; CFTR knock out (−/−) mice, data not shown) was “ISC activation is also observed” and the ISC activation (mouse intestine; normal mice, 100 μM, mucosal surface) was “activates ISC”. For the same molecule, the ISC activation (mouse intestine; ΔF508 CFTR transgenic mice, 100 μM, mucosal surface) was “activates ISC” and the “cellular cAMP” value (cellular cAMP) was “does not increase cellular cAMP”.

For `Nc1ncnc2c1ncn2[C@@H]1O[C@H](COP(=O)(O)OP(=O)(O)OP(=O)(O)O)[C@@H](O)[C@H]1O` [ATP, adenosine triphosphate], the Cl- secretion (CF tissues) is given as “shown to activate”.

For `CCCn1c(=O)c2[nH]c(C3CCCC3)nc2n(CCC)c1=O` [CPX, reference compound], the “ISC / transepithelial Cl- secretion” value (CFPAC-1 cell monolayers; [5]) is listed as “did not suggest strong Cl^− secretion; also recorded: do not mediate Cl^− secretion”, the “direction of predominant ISC” value (CFPAC-1 cell monolayers; [5]) is listed as “opposite to that expected” and the Cl- efflux (ΔF508 CFTR; NIH 3T3 cells after expression of the ΔF508 protein) is listed as “could be activated”. The Cl- efflux (ΔF508 CFTR; airway cells derived from a CF patient (IB3-1-cell line)) was “could be activated” and the Cl- efflux (ΔF508 CFTR; human CF pancreatic cells (CFPAC-cell line)) was “could be activated”.

In the case of `C[C@H](CCC(=O)O)C[C@H](C)C[C@H](C)C(=O)/C=C(\O)[C@H](C)C[C@H](C)C/C=C/[C@@H](C)[C@@H](O)[C@@H](C)[C@@H](O)C[C@@H]1CC[C@@](C)([C@H]2CC[C@@](C)([C@@H](C)O)O2)O1` [Ionomycin, reference compound], the “iodide (anion) efflux” value (CFPAC cells [1]) is reported as “anticipated stimulation of iodide efflux”.

For `O=c1ccn([C@@H]2O[C@H](COP(=O)(O)OP(=O)(O)OP(=O)(O)O)[C@@H](O)[C@H]2O)c(=O)[nH]1` [UTP, uridine triphosphate, reference compound], the Cl- secretion (CF tissues) is given as “shown to activate” and the “ISC / transepithelial Cl- secretion” value (CFPAC-1 cell monolayers; [5]) is given as “small, transient activation; also recorded: smaller, transient effect”.

For duramycin [reference compound], the “ISC / transepithelial Cl- secretion” value (CFPAC-1 cell monolayers; 5 μm) was “stronger, although transient, activation”.
